Consider 1 compound from patent US20220298146A1, “HETEROCYCLIC DERIVATIVE AND USE THEREOF” (Transthera Sciences (Nanjing), Inc., priority 2019, published 2022).

The nature of data set [1]: Beagle PK evaluation experiment. Format: in vivo. To be noted: dog, plasma. On the procedure:
Test samples: the compounds of the present invention, prepared according to exemplary methods.
Administration and Sample Collection:
Experimental compounds 11, 12 and 35 were each dissolved in a mixture of 5% DMSO+20% (30% Solutol)+75% saline to prepare solutions. The compound solutions were administrated via intragastric gavage to beagles at a dose of 1.0 mg/kg, respectively. The blood was collected at time points of 0 min, 15 min, 30 min, 1 h, 2 h, 4 h, 6 h, 8 h, 10 h and 24 h.
Experimental compounds 11, 12 and 35 were each dissolved in a mixture of 5% DMSO+20% (30% Solutol)+75% saline to prepare solutions. The compound solutions were intravenously injected into beagles at a dose of 1.0 mg/kg, respectively. The blood was collected at time points of 0 min, 5 min, 15 min, 30 min, 1 h, 2 h, 4 h, 6 h, 8 h, 10 h and 24 h. […]
Experimental compound 17 and compound 37 were each dissolved in a mixture of 5% DMSO+20% PEG400+75% (20% Captisol in Water) to prepare solutions. The compound solutions were intravenously injected into beagles at a dose of 1.0 mg/kg, respectively. The blood was collected at time points of 0 min, 5 min, 15 min, 30 min, 1 h, 2 h, 4 h, 6 h, 8 h, 10 h and 24 h. […]
Experimental compound 18 was dissolved in a mixture of 5% DMA+30% PEG400+65% (20% Captisol in Saline) to prepare a solution. The compound solution was intravenously injected into a beagle at a dose of 1.0 mg/kg. The blood was collected at time points of 0 min, 5 min, 15 min, 30 min, 1 h, 2 h, 4 h, 6 h, 8 h, 10 h and 24 h.
About 1 mL of blood was collected via the upper extremity, and the collected blood was placed in an anticoagulation tube containing EDTA-K2. The blood samples were centrifuged at 1800 g for 5 min at 4° C. to give plasma samples which were prepared within 30 min after blood collection. The plasma samples were stored in a refrigerator at −80° C. before test.
The samples to be tested were taken out from the refrigerator at −80° C., and vortexed for 5 min after naturally thawed at room temperature. 20 μL of plasma samples were each pipetted into a 1.5 mL centrifuge tube, and 200 μL of internal standard working solution (a solution of tolbutamide in methanol) at 100 ng/mL was added. The resulting mixture was mixed well, vortexed for 5 min, and then centrifuged at 12,000 rpm for 5 min. 50 μL of the supernatant was pipetted into a 96-well plate with 150 μL of water per well, and the plate was vortexed for 5 min and mixed well before LC-MS/MS analysis.
The concentrations of test samples were calculated by Analyst 1.6.3 from AB Sciex. Parameters such as mean, standard deviation and coefficient of variation (excluding those output directly by Analyst 1.6.3) were calculated by Microsoft Excel. PK parameters were calculated by Pharsight Phoenix 6.1 software NCA (Tmax was in median).

The target of a further data set is T1, Axl (h) (Homo sapiens, UniProt P30530).
T1 construct: purchased
T1 sequence (P30530 26-894): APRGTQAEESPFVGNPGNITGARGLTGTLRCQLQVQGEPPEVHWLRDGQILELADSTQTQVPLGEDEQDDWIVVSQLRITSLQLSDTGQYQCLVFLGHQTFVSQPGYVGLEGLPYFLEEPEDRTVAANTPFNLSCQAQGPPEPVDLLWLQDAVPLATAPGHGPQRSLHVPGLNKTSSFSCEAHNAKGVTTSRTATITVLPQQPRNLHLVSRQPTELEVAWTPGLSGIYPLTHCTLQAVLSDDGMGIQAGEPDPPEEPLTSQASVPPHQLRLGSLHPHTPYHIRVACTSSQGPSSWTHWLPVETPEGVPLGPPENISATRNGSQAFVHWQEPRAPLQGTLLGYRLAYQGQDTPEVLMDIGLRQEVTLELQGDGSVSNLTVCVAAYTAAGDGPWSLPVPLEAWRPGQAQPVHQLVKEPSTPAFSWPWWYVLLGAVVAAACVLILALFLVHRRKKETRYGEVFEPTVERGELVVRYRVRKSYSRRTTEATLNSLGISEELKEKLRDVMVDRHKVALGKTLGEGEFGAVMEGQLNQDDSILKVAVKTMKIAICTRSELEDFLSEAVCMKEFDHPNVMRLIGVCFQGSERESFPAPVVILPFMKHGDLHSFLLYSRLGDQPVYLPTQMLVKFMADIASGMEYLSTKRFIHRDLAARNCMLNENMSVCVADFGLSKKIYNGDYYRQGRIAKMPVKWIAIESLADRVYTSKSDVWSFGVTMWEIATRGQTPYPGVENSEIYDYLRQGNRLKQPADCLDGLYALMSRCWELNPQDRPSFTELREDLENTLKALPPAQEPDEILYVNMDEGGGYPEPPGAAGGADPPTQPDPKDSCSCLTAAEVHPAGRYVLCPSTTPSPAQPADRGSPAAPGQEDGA
The data set is described as follows: Enzymatic activity assay, Axl (h) kinase, [γ-33P]-ATP. Format: biochemical. To be noted: 10 μM [γ-33P]-ATP, 40 min, room temperature; read-out: Inhibitory Activity on Ax1 (h), IC50. How it is done:
Test samples: the compounds of the present invention, having structures and preparation methods shown above.
(1) Preparation of Compound Stock Solutions
Compounds were each dissolved in 100% DMSO to prepare stock solutions with a maximum concentration of 500 μM.
(2) Preparation of Compound Working Solutions
The compound stock solutions were diluted to final concentrations of 500 μM, 150 μM, 50 μM, 15 μM, 5 μM, 1.5 μM, 0.5 μM, 0.15 μM and 0.05 μM to prepare compound working solutions (50×).
(3) Preparation of different enzymatic reaction solutions
Axl (h) enzyme was dissolved in a mixture of 8 mM MOPS (pH 7.0), 0.2 mM EDTA and 250 μM KKSRGDYMTMQIG to prepare an enzyme solution with a final concentration of 1.7 nM. An Mg/ATP mixture of 10 mM magnesium acetate and 10 μM [γ-^33P]-ATP was used to activate the enzymatic reaction.
The compound working solutions were added to a 384-well plate, with final concentrations of 10000 nM, 3000 nM, 1000 nM, 300 nM, 100 nM, 30 nM, 10 nM, 3 nM and 1 nM, respectively, and then different enzymatic reaction solutions prepared according to the above conditions were added. The reaction solutions were incubated at room temperature for 40 min, and then 0.5% phosphoric acid solutions were added to terminate the reaction. 10 μL of the reaction solution was added dropwise to P30 filter paper which was washed 4 times with a 0.425% phosphoric acid solution and once with methanol and then placed in a scintillation counter for detection. Gray analysis was performed on the results with Image J software, and IC50 values were calculated with GraphPad 5.0 software.

Like-named read-outs stand apart in the source and are kept apart here.

As for `C=CCn1cc(-c2ccc(F)cc2)c(=O)c(C(=O)Nc2ncc(Oc3ccnc(N)c3Cl)cn2)n1` [Compound 37], the AUC(0-t) in data set [1] (iv, dose 1 mg/kg, n=3, read-out: AUClast iv (area under concentration-time curve for 0-24 h)) came out at 2600 ng·h/mL; in data set [1] (po (gavage), dose 1 mg/kg, n=3, read-out: AUClast po (area under concentration-time curve for 0-24 h)) it was 1830 ng·h/mL. Further, in data set [1] (iv, dose 1 mg/kg, n=3, read-out: Cl_obs iv (clearance rate) (converted)), the clearance is 6.83 mL/min/kg. Further, the Vd in data set [1] (iv, dose 1 mg/kg, n=3, read-out: Vz_obs iv (apparent volume of distribution)) was 1.07 L/kg. The half-life in data set [1] (iv, dose 1 mg/kg, n=3, read-out: tz1/2 iv (terminal half-life) (converted)) is 1.79 h; in data set [1] (po (gavage), dose 1 mg/kg, n=3, read-out: tz1/2 po (terminal half-life) (converted)) it was 1.88 h. Besides, the bioavailability in data set [1] (iv/po dose 1/1 mg/kg, n=3, read-out: F % (absolute bioavailability)) was determined as 70.6%. Also, in data set [1] (po (gavage), dose 1 mg/kg, n=3, median, read-out: Tmax po (time to maximum plasma concentration)), the Tmax was determined as 0.5 h. Further, the half-inhibitory concentration (IC50) at Axl (h) stood at 9 nM.

For orientation: clearance means the volume of plasma or blood freed of the substance per unit of time. What is called bioavailability is the share of a dose that reaches the circulation, judged against a reference dose that is usually intravenous. As a reminder, the IC50 is the concentration that gives 50% inhibition.
